Laboratory results taken from ChEMBL document CHEMBL6127011, “Design, synthesis, and evaluation of benzodioxolane compounds for antitumor activity” (Bioorg Med Chem Lett, 2024).
Activity calls are given as the source filed them. No cut-off for these calls is given here.

Columns and labels:
[1] = (§1) Cytotoxicity against human HEK293T cells by MTT assay; assay type: toxicity, cell-based, HEK-293T; conditions: human, HEK293T cells
[2] = tested on: MDA-MB-231; test: Antiproliferative activity against human MDA-MB-231 cells by MTT assay; assay type: functional, cell-based
[3] = tested on: HeLa; test: Antiproliferative activity against human HeLa cells by MTT assay; assay type: functional, cell-based
[4] = tested on: HEK-293T; test: as §1; assay type: toxicity, cell-based; conditions: hek-293t; for Activity: human
[5] = tested on: HeLa; test: Antitumor activity against human HeLa cells xenografted in chicken embryo chorioallantoic membrane assessed as reduction in tumor weight at 5 uM (reference value: 39 +/- 1.41 mg); assay type: functional
[6] = tested on: HeLa; test: Antitumor activity against human HeLa cells xenografted in chicken embryo chorioallantoic membrane assessed as reduction in tumor weight at 10 uM (reference value: 39 +/- 1.41 mg); assay type: functional
[7] = tested on: HeLa; test: Inhibition of cell adhesion in human HeLa cells at 10 uM; assay type: functional
[8] = tested on: HeLa; test: Inhibition of colony formation in human HeLa cells incubated for 24 hrs; assay type: functional, cell-based; conditions: dose 2.5-10 µM
[9] = tested on: HeLa; test: Antitumor activity against human HeLa cells xenografted in chicken embryo chorioallantoic membrane assessed as reduction in tumor weight at 2.5 uM (reference value: 39 +/- 1.41 mg); assay type: functional
[10] = tested on: HeLa; test: Inhibition of colony formation in human HeLa cells at 10 uM incubated for 24 hrs; assay type: functional
[11] = Inhibition of tumor angiogenesis in human HeLa cells xenografted in chick embryo chorioallantoic membrane at 2.5 uM incubated for 24 hrs; values are per cent of control
[12] = tested on: HeLa; test: Inhibition of cell adhesion in human HeLa cells; assay type: functional, cell-based
[13] = Inhibition of tumor angiogenesis in human HeLa cells xenografted in chick embryo chorioallantoic membrane at 10 uM incubated for 24 hrs; values are per cent of control
[14] = tested on: HeLa; test: Inhibition of cell migration in human HeLa cells assessed as migration rate at 5 uM incubated for 24 hrs by transwell assay; values are per cent of control
[15] = tested on: HeLa; test: Inhibition of cell migration in human HeLa cells assessed as migration rate at 10 uM incubated for 24 hrs by transwell assay; values are per cent of control
[16] = tested on: HeLa; test: Inhibition of cell migration in human HeLa cells assessed as migration rate at 2.5 uM incubated for 24 hrs by transwell assay; values are per cent of control
[17] = Inhibition of tumor angiogenesis in human HeLa cells xenografted in chick embryo chorioallantoic membrane at 5 uM incubated for 24 hrs; values are per cent of control

Row | Structure (SMILES) | IC50 [1] [µM] | IC50 [2] [µM] | IC50 [3] [µM] | other results
1 | Cc1cn(-c2cc(NC(=O)/C=C/c3ccc4c(c3)OCO4)cc(C(F)(F)F)c2)cn1 | 18.7 | 28.8 | 8.61 | –
2 | O=C(/C=C/C=C/c1ccc2c(c1)OCO2)N1CCCCC1 [PIPERINE] | 42.8 | 239 | 44.4 | –
3 | COc1cc2c(cc1OC)C(=O)C(CC1CCN(C(=O)/C=C/c3cc4c(cc3Br)OCO4)CC1)C2 (configuration not stated) | – | 15.2 | 29.5 | Activity [4]: Non-Toxic
4 | O=C1CCC(N2Cc3c(NC(=O)c4ccc5c(c4)OCO5)cccc3C2=O)C(=O)N1 (configuration not stated) | 625 | 284 | 11.5 | –
5 | O=C1CCC(N2Cc3c(NC(=O)Cc4ccc5c(c4)OCO5)cccc3C2=O)C(=O)N1 (configuration not stated) | – | – | 63.2 | IC50 [4]: 1430 µM; Activity [2]: inactive
6 | Cc1cn(-c2cc(NC(=O)Cc3ccc4c(c3)OCO4)cc(C(F)(F)F)c2)cn1 | 18.9 | 46.9 | 7.81 | –
7 | COc1cc2c(cc1OC)C(=O)C(CC1CCN(C(=O)/C=C/c3ccc4c(c3)OCO4)CC1)C2 (configuration not stated) | 8.03 | 105 | 18.5 | –
8 | Cc1cn(-c2cc(NC(=O)/C=C/C=C/c3ccc4c(c3)OCO4)cc(C(F)(F)F)c2)cn1 | 104 | 22.8 | 10.2 | Activity [5]: 13.5 mg; Activity [6]: 7.5 mg; inhibition at 10 µM [7]: 16.7%; inhibition [8]: Dose-Dependent Effect; Activity [9]: 28.5 mg; inhibition at 10 µM [10]: 25.1%; angiogenesis (% of control) at 2.5 µM [11]: 93.2%; inhibition [12]: Dose-Dependent Effect; angiogenesis (% of control) at 10 µM [13]: 61.9%; migration rate (% of control) at 5 µM [14]: 50.4%; migration rate (% of control) at 10 µM [15]: 27.6%; migration rate (% of control) at 2.5 µM [16]: 80.3%; angiogenesis (% of control) at 5 µM [17]: 78.4%
9 | COc1cc2c(cc1OC)C(=O)C(CC1CCN(C(=O)/C=C/C=C/c3ccc4c(c3)OCO4)CC1)C2 (configuration not stated) | 61.9 | 123 | 32.1 | –
10 | COc1cc2c(cc1OC)C(=O)C(CC1CCN(C(=O)c3ccc4c(c3)OC(F)(F)O4)CC1)C2 (configuration not stated) | – | 81.3 | 38 | Activity [4]: Non-Toxic
11 | O=c1[nH]cc(F)c(=O)[nH]1 [FLUOROURACIL] | 3.21 | 18.1 | 44.6 | inhibition at 10 µM [7]: 55.8%; inhibition at 10 µM [10]: 52.1%; angiogenesis (% of control) at 10 µM [13]: 78.8%; migration rate (% of control) at 10 µM [15]: 47.3%
12 | O=C(/C=C/C=C/c1ccc2c(c1)OCO2)Nc1cccc2c1CN(C1CCC(=O)NC1=O)C2=O (configuration not stated) | 81.5 | 80.7 | 50.4 | –
13 | Cc1cn(-c2cc(NC(=O)c3ccc4c(c3)OCO4)cc(C(F)(F)F)c2)cn1 | 479 | 254 | 50.6 | –
14 | O=C(/C=C/c1ccc2c(c1)OCO2)Nc1cccc2c1CN(C1CCC(=O)NC1=O)C2=O (configuration not stated) | – | – | 37.3 | IC50 [4]: 1440 µM; Activity [2]: inactive
15 | COc1cc2c(cc1OC)C(=O)C(CC1CCN(C(=O)c3ccc4c(c3)OCO4)CC1)C2 (configuration not stated) | 405 | 80.6 | 25 | –
